Reference: the supplement of paper PMC10627819

Assays:
[1] = tested on: S. aureus Newman; assay: Bliss interaction score (quartile over a dose matrix) (fitness difference); higher = more antagonism (negative = synergy)
Outline: (§1)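 Fitness was OD595 at entry into stationary phase divided by the plate's robust no-drug mean and capped at 1; single-drug fitness was inferred from combination data. The Bliss score is observed minus expected (product) fitness, summarised by quartiles over technical, biological and donor/recipient replicates.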

[2] = tested on: S. pneumoniae D39V; assay: as above
Outline: as §1

[3] = tested on: B. subtilis 168; assay: as above
Outline: as §1

[4] = tested on: S. aureus DSM 20231; assay: as above
Outline: as §1

[5] = tested on: S. pneumoniae D39V; assay: fitness (endpoint OD595 vs no drug) (fraction); higher = more growth
Outline: (§2)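 Plates with 384 wells were inoculated at OD595 0.01 using 30 µl of TSB, LB Lennox or CY, or 55 µl for S. pneumoniae. Incubation was at 37 °C, with OD595 measured every 30 min for 14 h. Fitness is the stationary-phase transition optical density over the robust mean of no-drug control wells, after first-reading background subtraction; it is capped at 1.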

[6] = tested on: B. subtilis 168; assay: as above
Outline: as §2

[7] = tested on: S. aureus DSM 20231; assay: as above
Outline: as §2
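For Bliss interaction score (quartile over a dose matrix) in this document: first quartile when negative (synergy) and third quartile when positive (antagonism).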

CCC[C@@H]1C[C@@H](C(=O)N[C@@H]([C@H]2O[C@H](SC)[C@H](O)[C@@H](O)[C@H]2O)[C@@H](C)O)N(C)C1 [Lincomycin] + CC(=O)NC[C@H]1CN(c2ccc(N3CCOCC3)c(F)c2)C(=O)O1 [Linezolid]
Details | Bliss interaction score
[1] | -0.088
[2] | 0.0482
[3] | 0.158
[4] | -0.069

Details | fitness
[5], first compound 0.2 µg/mL, partner 0.105 µg/mL | 0.717
[5], first compound 0.2 µg/mL, partner 0.21 µg/mL | 0.658
[5], first compound 0.2 µg/mL, partner 0.42 µg/mL | 0.519
[5], first compound 0.215 µg/mL, partner 0.2 µg/mL | 0.716
[5], first compound 0.215 µg/mL, partner 0.4 µg/mL | 0.649
[5], first compound 0.215 µg/mL, partner 0.8 µg/mL | 0.413
[5], first compound 0.4 µg/mL, partner 0.105 µg/mL | 0.627
[5], first compound 0.4 µg/mL, partner 0.21 µg/mL | 0.601
[5], first compound 0.4 µg/mL, partner 0.42 µg/mL | 0.234
[5], first compound 0.43 µg/mL, partner 0.2 µg/mL | 0.642
[5], first compound 0.43 µg/mL, partner 0.4 µg/mL | 0.583
[5], first compound 0.43 µg/mL, partner 0.8 µg/mL | 0.306
[5], first compound 0.8 µg/mL, partner 0.105 µg/mL | 0.278
[5], first compound 0.8 µg/mL, partner 0.21 µg/mL | 0.128
[5], first compound 0.8 µg/mL, partner 0.42 µg/mL | 0.0738
[5], first compound 0.86 µg/mL, partner 0.2 µg/mL | 0.392
[5], first compound 0.86 µg/mL, partner 0.4 µg/mL | 0.311
[5], first compound 0.86 µg/mL, partner 0.8 µg/mL | 0.13
[6], first compound 0.1 µg/mL, partner 0.5 µg/mL | 0.0626
[6], first compound 0.2 µg/mL, partner 0.125 µg/mL | 0.643
[6], first compound 0.2 µg/mL, partner 0.5 µg/mL | 0.0527
[6], first compound 0.4 µg/mL, partner 0.125 µg/mL | 0.629
[6], first compound 0.4 µg/mL, partner 0.5 µg/mL | 0.0589
[7], first compound 0.1 µg/mL, partner 0.125 µg/mL | 0.824
[7], first compound 0.1 µg/mL, partner 0.25 µg/mL | 0.628
[7], first compound 0.1 µg/mL, partner 0.5 µg/mL | 0.276
[7], first compound 0.2 µg/mL, partner 0.125 µg/mL | 0.583
[7], first compound 0.2 µg/mL, partner 0.5 µg/mL | 0.192
[7], first compound 0.4 µg/mL, partner 0.125 µg/mL | 0.244
[7], first compound 0.4 µg/mL, partner 0.25 µg/mL | 0.146
[7], first compound 0.4 µg/mL, partner 0.5 µg/mL | 0.0893

fitness, one replicate
Details | first compound 0.1 µg/mL | first compound 0.2 µg/mL | first compound 0.4 µg/mL | first compound 0.8 µg/mL | first compound 1.6 µg/mL
[6], partner 0.0625 µg/mL | – | – | 0.87 | 0.867 | 0.847
[6], partner 0.125 µg/mL | – | – | – | 0.633 | 0.638
[6], partner 0.25 µg/mL | – | – | – | 0.102 | 0.0942
[7], partner 1 µg/mL | 0.0602 | 0.0846 | 0.0423 | – | –

CCC[C@@H]1C[C@@H](C(=O)N[C@@H]([C@H]2O[C@H](SC)[C@H](O)[C@@H](O)[C@H]2O)[C@@H](C)O)N(C)C1 [Lincomycin] + CCN(CC)CCOC(=O)c1ccc(N)cc1 [Procaine]
Details | Bliss interaction score
[1] | 0.0563
[2] | -0.0294
[3] | 0.0306
[4] | 0.0558

fitness, [5], one replicate
Details | first compound 0.2 µg/mL | first compound 0.4 µg/mL | first compound 0.8 µg/mL
partner 85.5 µg/mL | 0.748 | 0.673 | 0.0927
partner 171 µg/mL | 0.809 | 0.693 | 0.148
partner 342 µg/mL | 0.746 | 0.665 | 0.126

fitness
Details | partner 85.5 µg/mL | partner 171 µg/mL | partner 342 µg/mL
[5], first compound 0.215 µg/mL | 0.812 | 0.783 | 0.784
[5], first compound 0.43 µg/mL | 0.717 | 0.695 | 0.697
[5], first compound 0.86 µg/mL | – | 0.39 | 0.495
[6], first compound 0.1 µg/mL | 0.917 | 0.932 | 0.891
[6], first compound 0.2 µg/mL | 0.899 | 0.922 | 0.862
[6], first compound 0.4 µg/mL | 0.875 | 0.875 | 0.853
[7], first compound 0.1 µg/mL | 0.844 | 0.926 | 0.863
[7], first compound 0.2 µg/mL | 0.749 | 0.837 | 0.821
[7], first compound 0.4 µg/mL | 0.391 | 0.39 | 0.363

CCC[C@@H]1C[C@@H](C(=O)N[C@@H]([C@H]2O[C@H](SC)[C@H](O)[C@@H](O)[C@H]2O)[C@@H](C)O)N(C)C1 [Lincomycin] + CN1C2=CC=CC=C2N=C3C1=CC=CC3=O [Pyocyanin]
Details | Bliss interaction score
[1] | -0.229
[2] | 0.113
[3] | 0.0751
[4] | -0.1

fitness, [5], one replicate
Details | first compound 0.2 µg/mL | first compound 0.4 µg/mL | first compound 0.8 µg/mL
partner 0.325 µg/mL | 0.818 | 0.7 | 0.661
partner 0.65 µg/mL | 0.855 | 0.747 | 0.69

Details | fitness
[5], first compound 0.215 µg/mL, partner 0.325 µg/mL | 0.877
[5], first compound 0.215 µg/mL, partner 0.65 µg/mL | 0.855
[5], first compound 0.215 µg/mL, partner 1.3 µg/mL | 0.741
[5], first compound 0.43 µg/mL, partner 0.325 µg/mL | 0.575
[5], first compound 0.43 µg/mL, partner 0.65 µg/mL | 0.794
[5], first compound 0.43 µg/mL, partner 1.3 µg/mL | 0.665
[5], first compound 0.86 µg/mL, partner 0.325 µg/mL | 0.535
[5], first compound 0.86 µg/mL, partner 0.65 µg/mL | 0.489
[5], first compound 0.86 µg/mL, partner 1.3 µg/mL | 0.329
[6], first compound 0.1 µg/mL, partner 1.25 µg/mL | 0.899
[6], first compound 0.1 µg/mL, partner 2.5 µg/mL | 0.823
[6], first compound 0.1 µg/mL, partner 5 µg/mL | 0.694
[6], first compound 0.2 µg/mL, partner 1.25 µg/mL | 0.862
[6], first compound 0.2 µg/mL, partner 2.5 µg/mL | 0.8
[6], first compound 0.2 µg/mL, partner 5 µg/mL | 0.668
[6], first compound 0.4 µg/mL, partner 1.25 µg/mL | 0.827
[6], first compound 0.4 µg/mL, partner 2.5 µg/mL | 0.792
[6], first compound 0.4 µg/mL, partner 5 µg/mL | 0.66
[7], first compound 0.1 µg/mL, partner 1.25 µg/mL | 0.794
[7], first compound 0.1 µg/mL, partner 2.5 µg/mL | 0.883
[7], first compound 0.1 µg/mL, partner 5 µg/mL | 0.555
[7], first compound 0.2 µg/mL, partner 1.25 µg/mL | 0.661
[7], first compound 0.2 µg/mL, partner 2.5 µg/mL | 0.613
[7], first compound 0.2 µg/mL, partner 5 µg/mL | 0.329
[7], first compound 0.4 µg/mL, partner 2.5 µg/mL | 0.195
[7], first compound 0.4 µg/mL, partner 5 µg/mL | 0.0887

CCC[C@@H]1C[C@@H](C(=O)N[C@@H]([C@H]2O[C@H](SC)[C@H](O)[C@@H](O)[C@H]2O)[C@@H](C)O)N(C)C1 [Lincomycin] + CN(N=O)C(=O)N[C@@H](C=O)[C@@H](O)[C@H](O)[C@H](O)CO [Streptozotocin]
Details | Bliss interaction score
[1] | 0.125
[2] | -0.138
[3] | -0.0171
[4] | 0.0558

fitness, [5], one replicate
Details | first compound 0.2 µg/mL | first compound 0.4 µg/mL | first compound 0.8 µg/mL
partner 1.2 µg/mL | 0.767 | 0.683 | 0.181
partner 2.4 µg/mL | 0.734 | 0.683 | 0.273
partner 4.8 µg/mL | 0.639 | 0.553 | 0

fitness
Details | first compound 0.1 µg/mL | first compound 0.2 µg/mL | first compound 0.215 µg/mL | first compound 0.4 µg/mL | first compound 0.43 µg/mL | first compound 0.86 µg/mL
[5], partner 1.2 µg/mL | – | – | 0.752 | – | 0.664 | 0.148
[5], partner 2.4 µg/mL | – | – | 0.754 | – | 0.661 | 0.261
[5], partner 4.8 µg/mL | – | – | 0.793 | – | 0.705 | 0.237
[6], partner 0.15 µg/mL | 0.957 | 0.99 | – | 0.994 | – | –
[6], partner 0.3 µg/mL | 0.966 | 0.93 | – | 0.997 | – | –
[6], partner 0.6 µg/mL | 0.956 | 0.953 | – | 0.99 | – | –
[7], partner 0.15 µg/mL | 0.804 | 0.635 | – | 0.282 | – | –
[7], partner 0.3 µg/mL | 0.796 | 0.611 | – | 0.267 | – | –
[7], partner 0.6 µg/mL | 0.708 | 0.565 | – | 0.177 | – | –
